Data set [1] relates to rabbits. The experiment in a line: Cytotoxicity by ocular irritation study (ISO 10993-10). It is filed as in vivo. Particulars: 0.035% in PBS, ocular irritation study in rabbits (ISO 10993-10). From the text: An advantage of the surfactants used herein is that they are non-cytotoxic at concentrations effective at reducing surface concentration of silicon, and thus may be left in the final packaged contact lens. In contrast, other methods for reducing surface concentration of silicone of silicone hydrogel contact lenses employ toxic compounds that must be extracted from the contact lens prior to final packaging (see e.g. US Pat. Appin. Publ. No. 2014/0275434). Thus, the prior art method requires additional processing steps in order to provide an ophthalmically-acceptable contact lens, which add to manufacturing costs. Further, there is a desire to minimize the use of hazardous chemicals in manufacturing sites, which is another advantage of the present invention compared to the prior art. In specific examples, the concentration of the surfactant in the packaging solution prior to contact with the contact lens is from about 0.01 wt. % or 0.02 wt. %, up to about 0.05 wt. %, 0.075 wt. %, or 0.1 wt. %. Throughout this disclosure, when a series of lower limit ranges and a series of upper limit ranges are provided, all combinations of the provided ranges are contemplated as if each combination were specifically listed. […]
Because of the low CoF values obtained for both lenses, tyloxapol and RLM-100 were evaluated further for use as a possible packaging solution additive.

A short description of data set [2]: Hydrophilic-lipophilic balance (HLB) value. It is filed as physicochemical. The note with it: calculated as twenty times molecular weight of hydrophilic portion divided by total molecular weight.

tyloxapol: the cytotoxicity entry in data set [1] is “non-cytotoxic”. In addition, the HLB value entry in data set [2] is reported as “about 13”.

Source of the values: US20190154879A1, “Silicone Hydrogel Contact Lenses Having Improved Lubricity” (CooperVision International Holding Company, LP, priority 2016, published 2019).
